Results: patent US6376427B1, “Herbicidal compositions” (Sumitomo Chemical Company, Limited, priority 1998, dated 2002)

What was measured:
giant foxtail [1] = experiment: Test Example 1: post-emergence foliar spray, herbicidal activity; assay type: in vivo, giant foxtail (Setaria faberi); details: sprayed on 23-day plants, examined 5 days after application, index 0 to 10
Description: (§1) Plastic pots each having an area of 26.5×19cm^2 and a depth of 10 cm were filled with upland soil, and then seeded with wheat and giant foxtail. The wheat was grown for 14 days and t he giant foxtail was grown for 23 days in a greenhouse. An emulsifiable concentrate compound A which had been obtained by well mixing 10 parts of compound A, 14 parts of polyoxyethylene styryl phenyl ether, 6 parts of calcium dodecylbenzenesulfonate, 35 parts of xylene, and 35 parts of cyclohexanone, an emulsifiable concentrate of flufenacet which had been obtained by well mixing 10 parts of flufenacet, 14 parts of polyoxyethylene styryl phenyl ether, 6 parts of calcium dodecylbenzenesulfonate, 35 parts of xylene, and 35 parts of cyclohexanone, and a mixture of the emulsifiable concentrate of compound A and the emulsifiable concentrate of flufenacet were independently diluted in their prescribed amounts with water. Each dilution was uniformly sprayed over the plants with a small sprayer. After the application, the plants were grown in the greenhouse for 5 days, and the herbicidal activity and safety to wheat were then examined.

soybean = experiment: Test Example 2: safety to soybean (phytotoxicity); assay type: in vivo; details: dosage 40 g/ha; sprayed on 22-day soybean; examined 5 days after application
Description: (§2) Plastic pots each having an area of 26.5×19 cm^2 and a depth of 7 cm were filled with upland soil, and then seeded with soybean, corn and giant foxtail. The corn was grown for 13 days, and the soybean and giant foxtail were grown for 22 days in a greenhouse. An emulsifiable concentrate compound A which had been obtained by well mixing 10 parts of compound A, 14 parts of polyoxyethylene styryl phenyl ether, 6 parts of calcium dodecylbenzenesulfonate, 35 parts of xylene, and 35 parts of cyclohexanone, an emulsifiable concentrate of flufenacet which had been obtained by well mixing 10 parts of flufenacet, 14 parts of polyoxyethylene styryl phenyl ether, 6 parts of calcium dodecylbenzenesulfonate, 35 parts of xylene, and 35 parts of cyclohexanone, and a mixture of the emulsifiable concentrate of compound A and the emulsifiable concentrate of flufenacet were independently diluted in their prescribed amounts with water. Each dilution was uniformly sprayed over the plants with a small sprayer. After the application, the plants were grown in the greenhouse for 5 days, and the herbicidal activity and safety to soybean and corn were then examined.

giant foxtail [2] = experiment: Test Example 2: post-emergence foliar spray, herbicidal activity; assay type: in vivo, giant foxtail (Setaria faberi); details: sprayed on 22-day plants, examined 5 days after application, index 0 to 10
Description: as §2

wheat = experiment: Test Example 1: safety to wheat (phytotoxicity); assay type: in vivo, wheat (Triticum aestivum); details: dosage 10 g/ha; sprayed on 14-day wheat; examined 5 days after application
Description: as §1

corn = experiment: Test Example 2: safety to corn (phytotoxicity); assay type: in vivo; details: dosage 40 g/ha; sprayed on 13-day corn; examined 5 days after application
Description: as §2

| SMILES | Herbicidal activity Giant foxtail (giant foxtail [1]; dosage 10 g/ha) | Phytotoxicity Soybean (soybean) | Herbicidal activity Giant foxtail (giant foxtail [2]; dosage 40 g/ha) | Phytotoxicity Wheat (wheat) | Phytotoxicity Corn (corn) | Herbicidal activity Giant foxtail (giant foxtail [1]; dosage 240 g/ha) | Herbicidal activity Giant foxtail (giant foxtail [2]; dosage 400 g/ha) |
| --- | --- | --- | --- | --- | --- | --- | --- |
| CCOC(=O)COc1cc(-n2ncc(C(F)(F)F)c(C)c2=O)c(F)cc1Cl [Compound A] | 3 | No harm | 4 | No harm | No harm | – | – |
| CC(C)N(C(=O)COc1nnc(C(F)(F)F)s1)c1ccc(F)cc1 [Flufenacet, 4-fluoro-N-isopropyl-2-(5-trifluoromethyl-,1,3,4-thiadiazol-2-yloxy)acetanilide, reference compound] | – | – | – | – | – | 2 | 2 |
